This is an account of results in paper PMC9973256, “A Cysteine Pair Controls Flavin Reduction by Extracellular Cytochromes during Anoxic/Oxic Environmental Transitions” (mBio, 2023).

Common to all, as to format: binding
Assay [1] deals with T1, MtrCsol (soluble MtrC) (Shewanella oneidensis, UniProt Q8EG34, C453A).
T1 construct: soluble form; lipid anchor site and signal peptide replaced by MtrB signal peptide; C-terminal StrepTactin tag; expressed in S. oneidensis delta-mtrC (LS661); decaheme
As to the kind of experiment: copurification through anaerobic PD10 size exclusion column, flavin fluorescence. The settings on record: 50 uM sodium dithionite (reduced FMN and heme), also with 1 mM DTT, no copurification without reductant.

The target in assay [2] is T2, MtrCsol (soluble MtrC) (Shewanella oneidensis, UniProt Q8EG34).
T2 construct: soluble form; lipid anchor site and signal peptide replaced by MtrB signal peptide; C-terminal StrepTactin tag; expressed in S. oneidensis delta-mtrC (LS661); decaheme
T2 sequence (Q8EG34 26-671): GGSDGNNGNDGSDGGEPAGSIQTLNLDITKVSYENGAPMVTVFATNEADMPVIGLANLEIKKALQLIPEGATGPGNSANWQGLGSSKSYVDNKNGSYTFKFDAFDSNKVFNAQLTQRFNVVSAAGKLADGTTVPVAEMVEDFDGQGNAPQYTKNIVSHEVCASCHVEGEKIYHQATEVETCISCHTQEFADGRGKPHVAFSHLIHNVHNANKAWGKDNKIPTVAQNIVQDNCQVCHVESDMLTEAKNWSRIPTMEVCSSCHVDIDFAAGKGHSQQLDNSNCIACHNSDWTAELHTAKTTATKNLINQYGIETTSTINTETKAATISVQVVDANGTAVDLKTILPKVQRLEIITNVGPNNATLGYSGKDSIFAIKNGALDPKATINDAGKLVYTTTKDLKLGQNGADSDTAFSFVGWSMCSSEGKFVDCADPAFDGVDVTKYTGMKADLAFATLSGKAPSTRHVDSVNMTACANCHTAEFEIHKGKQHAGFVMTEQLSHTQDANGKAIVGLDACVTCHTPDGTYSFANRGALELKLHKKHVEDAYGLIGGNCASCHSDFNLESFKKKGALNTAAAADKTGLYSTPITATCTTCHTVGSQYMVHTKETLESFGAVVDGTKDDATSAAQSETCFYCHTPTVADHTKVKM
Described as above. The settings on record: 1 mM DTT (disulfide reduced), no copurification without DTT or with 50 uM dithionite only.

Assay [3] deals with T3, MtrCsol (soluble MtrC) (Shewanella oneidensis, UniProt Q8EG34, C453S).
T3 construct: soluble form; lipid anchor site and signal peptide replaced by MtrB signal peptide; C-terminal StrepTactin tag; expressed in S. oneidensis delta-mtrC (LS661); decaheme
As to the kind of experiment: […] NMR titration of FMN. The settings on record: oxidized protein; 20 mM potassium phosphate pH 7.6, 100 mM KCl, 25 °C; slow exchange.

T3 sequence (Q8EG34 entry or part of it C453S): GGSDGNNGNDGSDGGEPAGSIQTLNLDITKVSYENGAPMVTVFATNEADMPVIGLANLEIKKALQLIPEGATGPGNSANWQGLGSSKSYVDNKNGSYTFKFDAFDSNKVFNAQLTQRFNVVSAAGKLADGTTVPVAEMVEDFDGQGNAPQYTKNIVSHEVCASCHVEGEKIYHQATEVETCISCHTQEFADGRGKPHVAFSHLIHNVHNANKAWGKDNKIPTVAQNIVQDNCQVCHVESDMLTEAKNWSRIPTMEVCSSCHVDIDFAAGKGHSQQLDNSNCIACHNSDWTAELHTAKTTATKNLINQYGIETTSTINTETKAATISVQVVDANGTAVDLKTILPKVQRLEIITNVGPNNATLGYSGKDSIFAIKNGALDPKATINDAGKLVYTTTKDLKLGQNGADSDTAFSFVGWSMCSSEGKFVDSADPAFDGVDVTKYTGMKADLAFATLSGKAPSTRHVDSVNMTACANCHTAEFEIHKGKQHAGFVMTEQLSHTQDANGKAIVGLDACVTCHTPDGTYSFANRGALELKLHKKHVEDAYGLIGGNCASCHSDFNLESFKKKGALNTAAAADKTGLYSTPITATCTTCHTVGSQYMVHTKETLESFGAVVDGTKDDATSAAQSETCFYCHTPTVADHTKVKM
T1 sequence (Q8EG34 entry or part of it C453A): as the sequence (Q8EG34 entry or part of it C453S) above, with S428A counted along it

With `Cc1cc2nc3c(=O)[nH]c(=O)nc-3n(C[C@H](O)[C@H](O)[C@H](O)COP(=O)(O)O)c2cc1C` [FMN], the “copurification through anaerobic PD10 size exclusion column, flavin fluorescence” value is reported as “revealed copurification of FMN with MtrCC453Asol but not MtrCsol” in assay [1] and “showing that MtrCC453Asol would form a similar FMN complex to MtrCsol in the presence of DTT” in assay [2]. Also, the “31P NMR titration of FMN” value in assay [3] is on record as “signal of FMN upon exposure to oxidized MtrCC453Ssol was monitored”.
